From PubChem BioAssay AID1963970 (Molecular Pharmacology Branch, DTP, NCI, 2024)
Values joined by “and” are separate entries in the source; they are usually repeats but may differ in a detail not shown here. Equal values may be shown once.

Test system: 931267-113-T-J1-PDC multicell spheroid viability
Assay: Anticancer human tumor 931267-113-T-J1-PDC patient-derived colon adenocarcinoma cell line growth inhibition [PI3K]
Settings: for viability, T/C: stronger effect = lower value
Excerpt: Combinatorial screen of targeted agents with the PI3K inhibitors inavolisib, alpelisib, duvelisib, and copanlisib in multi-cell type tumor spheroids
A high-throughput screen of multi-cell type tumor spheroids was designed to identify active combinations of targeted small molecules and PI3K pathway inhibitors. Complex spheroids include a stromal component modeled by human endothelial cells (HUVEC) and fibroblasts modeled by human mesenchymal stem cells (MSCs). The concentration ranges selected for each drug and investigational agent were based upon clinically achievable concentrations if the clinical Cmax of the agent was known.
Compounds. The drugs and investigational agents: inavolisib (NSC800729), alpelisib (NSC765974), duvelisib (NSC772469), copanlisib (NSC816437), ipatasertib (NSC767898), afuresertib (NSC778305), talazoparib (NSC767125), sapanisertib (NSC764658), selumetinib (NSC741078), tovorafenib (DAY101, NSC766906), vemurafenib (NSC761431), ravoxertinib (NSC781343), sotorasib (NSC818433), MRTX1133 (NSC 836407), abemaciclib (NSC 768073), palbociclib (NSC758247), venetoclax (NSC 766270), SY5609 (NSC837396), enzalutamide (NSC755605), and darolutamide (NSC825331), were obtained from the National Cancer Institute (NCI) Developmental Therapeutics Program Chemical Repository. The FDA-approved anticancer drug set is available from the NCI Developmental Therapeutics Program. […] The stock solutions were prepared in dimethyl sulfoxide (DMSO, Sigma-Aldrich, St. Louis, MO, cat. D2650) at 800-fold the tested concentration and stored at -70 degrees C prior to their use. All drugs and investigational agents were tested over a range starting from a high concentration at or near the clinical Cmax and decreasing in half-log increments. If the clinical Cmax for an agent had not been determined, the highest concentration tested was 10 microM.
Cell Culture. All cells were maintained in an incubator at 37 degrees C and 5% CO2 with 95% humidity. The PDC lines were cultured according to standard operating procedures established by the NCI PDMR (https://pdmr.cancer.gov/sops/default.htm). All PDCs were thawed and cultured in Matrigel-coated flasks prepared with a working solution of 1X Ham's F-12 nutrient mix, without supplementation (Invitrogen, Waltham, MA, cat. 11765054), 100 U/mL penicillin-streptomycin (Invitrogen, cat. 15140122), and 2.5% Matrigel (Corning Inc., Corning, NY, cat. 354248) for the first three passages. The 354836-022-R-J1-PDC, 475296-252-R-J1-PDC, and 997726-040-R-J2-PDC lines were cultured in 6A media, which includes advanced DMEM/F-12 (Thermo Fisher Scientific, cat. 12634028), 10 mM HEPES (Thermo Fisher Scientific, cat. 15630080), 1X GlutaMAX supplement (Thermo Fisher Scientific, cat. 35050061), 0.1 mg/mL primocin (InvivoGen, San Diego, CA, cat. ant-pm-2), 10% defined fetal bovine serum, heat inactivated (HyClone Laboratories Inc., Logan, UT, cat. SH30070.03HI), 50% L-WRN conditioned media (ATCC, cat. CRL-3276), 1.25 mM N-Acetyl-L-cysteine (Sigma-Aldrich, cat. A9165), 10 mM nicotinamide (Sigma-Aldrich, cat. N0636), 1X B-27 supplement (Thermo Fisher Scientific, cat. 17504044), 1X N-2 supplement (Thermo Fisher Scientific, cat. 17502048), and 10 microM Y-27632 dihydrochloride (Tocris Bioscience, Bristol, United Kingdom, cat. 1254). The 624824-186-R-J2-PDC line was cultured in 6C/Colon 1B media, which includes all 6A media components plus 50 ng/mL human EGF recombinant protein (Thermo Fisher Scientific, cat. PHG0311). […]
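Further: viability read 7 days after compound addition.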

Q: Which viability, T/C (compound 0.000316 µM) does the source give for `CC(=O)c1c(C)c2cnc(Nc3ccc(N4CCNCC4)cn3)nc2n(C2CCCC2)c1=O` here?
A: 112% and 99.6% and 105%

Q: What about the viability, T/C (compound 0.001 µM) of the same compound?
A: 110% and 101% and 102%

Q: What about the viability, T/C (compound 0.00316 µM) of the same compound?
A: 103% and 113% and 106%

Q: What about the viability, T/C (compound 0.01 µM) of the same compound?
A: 108% and 111% and 103%

Q: What about the viability, T/C (compound 0.0316 µM) of the same compound?
A: 99.5% and 106% and 104%

Q: What about the viability, T/C (compound 0.1 µM) of the same compound?
A: 89.5% and 91.3% and 105%

Q: And the IC50 (curve of compound)?
A: > 0.1 µM

Q: `CC1(C)CCC(CN2CCN(c3ccc(C(=O)NS(=O)(=O)c4ccc(NCC5CCOCC5)c([N+](=O)[O-])c4)c(Oc4cnc5[nH]ccc5c4)c3)CC2)=C(c2ccc(Cl)cc2)C1` + COc1c(OCCCN2CCOCC2)ccc2c3n(c(=NC(=O)c4cnc(N)nc4)nc12)CCN3 was tested. Which IC50 (curve of first compound, second compound 0.00316 µM) did it give?
A: > 10 µM

Q: And the IC50 (curve of first compound, second compound 0.01 µM)?
A: > 10 µM

Q: What about the IC50 (curve of first compound, second compound 0.0316 µM) of the same compound?
A: > 10 µM

Q: And the IC50 (curve of first compound, second compound 0.1 µM)?
A: 7.49 µM

Q: And the IC50 (curve of first compound, second compound 0.316 µM)?
A: 2.36 µM

Q: What about the IC50 (curve of first compound, second compound 1 µM) of the same compound?
A: < 0.0316 µM

Q: What about the viability, T/C (second compound 0.00316 µM, first compound 0.0316 µM) of the same compound?
A: 105%

Q: What about the viability, T/C (second compound 0.00316 µM, first compound 0.1 µM) of the same compound?
A: 99.5%

Q: What about the viability, T/C (second compound 0.00316 µM, first compound 0.316 µM) of the same compound?
A: 99%

Q: And the viability, T/C (second compound 0.00316 µM, first compound 1 µM)?
A: 102%

Q: And the viability, T/C (second compound 0.00316 µM, first compound 3.16 µM)?
A: 99.7%

Q: What about the viability, T/C (second compound 0.00316 µM, first compound 10 µM) of the same compound?
A: 80.8%

Q: And the viability, T/C (second compound 0.01 µM, first compound 0.0316 µM)?
A: 104%

Q: And the viability, T/C (second compound 0.01 µM, first compound 0.1 µM)?
A: 104%

Q: What about the viability, T/C (second compound 0.01 µM, first compound 0.316 µM) of the same compound?
A: 97.6%

Q: What about the viability, T/C (second compound 0.01 µM, first compound 1 µM) of the same compound?
A: 91.7%

Q: And the viability, T/C (second compound 0.01 µM, first compound 3.16 µM)?
A: 96.5%

Q: What about the viability, T/C (second compound 0.01 µM, first compound 10 µM) of the same compound?
A: 71.1%

Q: And the viability, T/C (second compound 0.0316 µM, first compound 0.0316 µM)?
A: 92.4%

Q: And the viability, T/C (second compound 0.0316 µM, first compound 0.1 µM)?
A: 89.8%

Q: What about the viability, T/C (second compound 0.0316 µM, first compound 0.316 µM) of the same compound?
A: 92.8%

Q: What about the viability, T/C (second compound 0.0316 µM, first compound 1 µM) of the same compound?
A: 86.4%

Q: What about the viability, T/C (second compound 0.0316 µM, first compound 3.16 µM) of the same compound?
A: 87.3%

Q: And the viability, T/C (second compound 0.0316 µM, first compound 10 µM)?
A: 68.2%

Q: What about the viability, T/C (second compound 0.1 µM, first compound 0.0316 µM) of the same compound?
A: 74.9%

Q: And the viability, T/C (second compound 0.1 µM, first compound 0.1 µM)?
A: 74.8%

Q: What about the viability, T/C (second compound 0.1 µM, first compound 0.316 µM) of the same compound?
A: 71.2%

Q: And the viability, T/C (second compound 0.1 µM, first compound 1 µM)?
A: 65.1%

Q: And the viability, T/C (second compound 0.1 µM, first compound 3.16 µM)?
A: 59.5%

Q: What about the viability, T/C (second compound 0.1 µM, first compound 10 µM) of the same compound?
A: 46.8%

Q: And the viability, T/C (second compound 0.316 µM, first compound 0.0316 µM)?
A: 53.5%

Q: What about the viability, T/C (second compound 0.316 µM, first compound 0.1 µM) of the same compound?
A: 50.3%

Q: What about the viability, T/C (second compound 0.316 µM, first compound 0.316 µM) of the same compound?
A: 49.2%

Q: What about the viability, T/C (second compound 0.316 µM, first compound 1 µM) of the same compound?
A: 51.7%

Q: What about the viability, T/C (second compound 0.316 µM, first compound 3.16 µM) of the same compound?
A: 49.6%

Q: What about the viability, T/C (second compound 0.316 µM, first compound 10 µM) of the same compound?
A: 31.3%

Q: What about the viability, T/C (second compound 1 µM, first compound 0.0316 µM) of the same compound?
A: 37.5%

Q: And the viability, T/C (second compound 1 µM, first compound 0.1 µM)?
A: 32.5%

Q: What about the viability, T/C (second compound 1 µM, first compound 0.316 µM) of the same compound?
A: 35.8%

Q: And the viability, T/C (second compound 1 µM, first compound 1 µM)?
A: 36.1%

Q: And the viability, T/C (second compound 1 µM, first compound 3.16 µM)?
A: 33.7%

Q: And the viability, T/C (second compound 1 µM, first compound 10 µM)?
A: 33.3%

Q: With `C[C@@H](NC(=O)c1ncnc(N)c1Cl)c1ncc(C(=O)Nc2cc(C(F)(F)F)c(Cl)cn2)s1` as the compound, how does the viability, T/C (compound 0.0316 µM) read?
A: 117% [middle of 4 runs]

Q: What about the viability, T/C (compound 0.1 µM) of the same compound?
A: 112% [middle of 4 runs]

Q: What about the viability, T/C (compound 0.316 µM) of the same compound?
A: 111% [middle of 4 runs]

Q: What about the viability, T/C (compound 1 µM) of the same compound?
A: 114% [middle of 4 runs]

Q: And the viability, T/C (compound 3.16 µM)?
A: 102% (2×) and 112% and 103%

Q: And the viability, T/C (compound 10 µM)?
A: 78% [middle of 4 runs]

Q: What about the IC50 (curve of compound) of the same compound?
A: > 10 µM
